Activity calls are given as the source filed them. No cut-off for these calls is given here.
Key:
[1] = target: T1, Delta-type opioid receptor (Homo sapiens, UniProt P41143); experiment: Agonist activity at DOR (unknown origin) transfected in CHO cells co-expressing Galphaq15 assessed as increase in calcium mobilization by measuring maximal efficacy by Fluo-4AM dye based assay relative to control; type: functional, cell-based; conditions: filed as agonist
[2] = target: T2, Neuropeptide FF receptor 2 (Homo sapiens, UniProt Q9Y5X5); experiment: Agonist activity at NPFF2R (unknown origin) transfected in HEK293 cells co-expressing Galphaq15 assessed as increase in calcium mobilization by measuring maximal efficacy by Fluo-4AM dye based assay relative to control; type: functional, cell-based; conditions: filed as agonist
[3] = target: T2, Neuropeptide FF receptor 2; experiment: Agonist activity at NPFF2R (unknown origin) transfected in HEK293 cells co-expressing Galphaq15 assessed as increase in calcium mobilization by Fluo-4AM dye based assay; type: functional, cell-based
[4] = Metabolic stability in mouse plasma assessed as degradation half life at 10 mM measured upto 480 mins by RP-HPLC analysis; type: ADME, cell-free
[5] = target: T3, Kappa-type opioid receptor (Homo sapiens, UniProt P41145); experiment: Agonist activity at KOR (unknown origin) transfected in CHO cells co-expressing Galphaq15 assessed as increase in calcium mobilization by Fluo-4AM dye based assay; type: functional, cell-based
[6] = tested on: Mus musculus; experiment: Antinociceptive activity in Kunming mouse assessed as changes in tail flick latency by measuring maximal possible effect at 26.7 nmol/kg, sc measured after 120 mins by tail-flick test; type: functional; conditions: 2 h
[7] = Metabolic stability in mouse brain homogenate assessed as degradation half life at 10 mM measured upto 480 mins by RP-HPLC analysis; type: ADME, tissue-based
[8] = tested on: Mus musculus; experiment: Antinociceptive activity in Kunming mouse assessed as changes in tail flick latency at 26.7 nmol/kg, sc pretreated with naloxone methiodide at 5 nmol, icv for 10 mins followed by compound addition and measured for 360 mins by tail-flick test; type: functional, organism-based
[9] = target: T1, Delta-type opioid receptor; experiment: Agonist activity at DOR (unknown origin) transfected in CHO cells co-expressing Galphaq15 assessed as increase in calcium mobilization by Fluo-4AM dye based assay; type: functional, cell-based
[10] = Agonist activity at NPFF1R (unknown origin) transfected in CHO cells co-expressing Galphaq15 assessed as increase in calcium mobilization by measuring maximal efficacy by Fluo-4AM dye based assay relative to control; type: functional, cell-based; conditions: Homo sapiens, filed as agonist
[11] = tested on: Mus musculus; experiment: Antinociceptive activity in Kunming mouse assessed as changes in tail flick latency by measuring maximal possible effect at 26.7 nmol/kg, sc measured after 60 mins by tail-flick test; type: functional; conditions: 1 h
[12] = target: T3, Kappa-type opioid receptor; experiment: Agonist activity at KOR (unknown origin) transfected in CHO cells co-expressing Galphaq15 assessed as increase in calcium mobilization by measuring maximal efficacy by Fluo-4AM dye based assay relative to control; type: functional, cell-based; conditions: filed as agonist
[13] = tested on: Mus musculus; experiment: Antinociceptive activity in Kunming mouse assessed as changes in tail flick latency by measuring time duration of antinociceptive effect at 26.7 nmol/kg, sc by tail-flick test; type: functional
[14] = tested on: Mus musculus; experiment: Antinociceptive activity in Kunming mouse assessed as changes in tail flick latency by measuring maximal possible effect at 26.7 nmol/kg, sc measured after 30 mins by tail-flick test; type: functional; conditions: 0.5 h
[15] = tested on: Mus musculus; experiment: Antinociceptive activity in Kunming mouse assessed as changes in tail flick latency by measuring maximal possible effect at 26.7 nmol/kg, sc measured after 20 mins by tail-flick test; type: functional
[16] = target: T4, Mu-type opioid receptor (Homo sapiens, UniProt P35372); experiment: Agonist activity at MOR (unknown origin) transfected in CHO cells co-expressing Galphaq15 assessed as increase in calcium mobilization by measuring maximal efficacy by Fluo-4AM dye based assay relative to control; type: functional, cell-based; conditions: filed as agonist
[17] = target: T4, Mu-type opioid receptor; experiment: Agonist activity at MOR (unknown origin) transfected in CHO cells co-expressing Galphaq15 assessed as increase in calcium mobilization by Fluo-4AM dye based assay; type: functional, cell-based
[18] = tested on: Mus musculus; experiment: Antinociceptive activity in Kunming mouse assessed as changes in tail flick latency by measuring maximal possible effect at 26.7 nmol/kg, sc measured after 240 mins by tail-flick test; type: functional; conditions: 4 h
[19] = Toxicity in sc dosed 16 hrs fasted Kunming mouse assessed as constipation by measuring inhibition of gastrointestinal transit administered for 15 mins followed by charcoal meal and measured after 30 mins; type: organism-based; conditions: in vivo, 0.75 h, time 45 min
[20] = tested on: Mus musculus; experiment: Antinociceptive activity in icv dosed Kunming mouse assessed as changes in tail flick latency measured for 360 mins by tail-flick test; type: functional; conditions: for ED50: 6 h
[21] = tested on: Mus musculus; experiment: Antinociceptive activity in sc dosed Kunming mouse assessed as changes in tail flick latency measured after 10 to 360 mins by tail-flick test; type: functional; conditions: time 10-360 min
[22] = tested on: Mus musculus; experiment: Antinociceptive activity in po dosed Kunming mouse assessed as changes in tail flick latency measured for 360 mins by tail-flick test; type: functional; conditions: for ED50: 6 h
[23] = tested on: Mus musculus; experiment: Antinociceptive activity in Kunming mouse assessed as changes in tail flick latency by measuring time duration of antinociceptive effect at 0.88 nmol/kg, sc by tail-flick test; type: functional
[24] = tested on: Mus musculus; experiment: Antinociceptive activity in Kunming mouse assessed as changes in tail flick latency by measuring maximal possible effect at 0.88 nmol/kg, sc measured after 20 mins by tail-flick test; type: functional
[25] = Toxicity in Kunming mouse assessed as addiction behavior at 88 nmol/kg, sc administered for 3 days starting from day 2 and measured on day 5 by conditioned place preference test; type: organism-based; conditions: in vivo, 96 h, time 4 day
[26] = Toxicity in Kunming mouse assessed as reduction in respiration frequency at 88 nmol/kg, sc measured upto 100 mins by whole-body plethysmography; type: organism-based; conditions: in vivo, 1.667 h
[27] = tested on: Mus musculus; experiment: Antinociceptive activity in Kunming mouse assessed as changes in tail flick latency by measuring maximal possible effect at 0.88 nmol/kg, sc measured after 60 mins by tail-flick test; type: functional; conditions: 1 h
[28] = Toxicity in sc dosed Kunming mouse assessed as effect on naloxone-induced jumping response at 88 nmol/kg, sc administered every 8 hrs for 3 days followed by naloxone administration at 2 hrs post last dose and measured immediately by Nal-precipitated withdraw test; type: organism-based; conditions: in vivo, 74 h
[29] = tested on: Mus musculus; experiment: Antinociceptive activity in Kunming mouse assessed as changes in tail flick latency at 0.88 nmol/kg, sc pretreated with nor-binaltorphimine at 10 nmol, icv for 30 mins followed by compound addition and measured for 360 mins by tail-flick test; type: functional, organism-based
[30] = tested on: Mus musculus; experiment: Antinociceptive activity in Kunming mouse assessed as changes in tail flick latency by measuring time duration of action at 1 to 10 pmol, icv measured for 360 mins by tail-flick test; type: functional; conditions: dose 1-10 pmol, 6 h
[31] = Toxicity in Kunming mouse assessed as effect on locomotor activity at 88 nmol/kg, sc measured after 20 to 180 mins by open field test; type: organism-based; conditions: in vivo, time 20-180 min
[32] = AUC in Kunming mouse plasma at 1 mg/kg, iv measured upto 240 mins by LC-MS/MS analysis; type: ADME, organism-based; design: time < 240 min, dose 1 mg/kg, route iv
[33] = tested on: Mus musculus; experiment: Antinociceptive activity in Kunming mouse assessed as changes in tail flick latency by measuring maximal possible effect at 0.88 nmol/kg, sc measured after 30 mins by tail-flick test; type: functional; conditions: 0.5 h
[34] = tested on: Mus musculus; experiment: Antinociceptive activity in Kunming mouse assessed as changes in tail flick latency at 0.88 nmol/kg, sc pretreated with beta-funaltrexamine at 10 nmol, icv for 4 hrs followed by compound addition and measured for 360 mins by tail-flick test; type: functional, organism-based
[35] = tested on: Mus musculus; experiment: Antinociceptive activity in Kunming mouse assessed as changes in tail flick latency by measuring time duration of action at 0.88 to 8.82 nmol/kg, po measured for 360 mins by tail-flick test; type: functional; conditions: dose 0.88-8.82 nmol/kg, 6 h
[36] = tested on: Mus musculus; experiment: Antinociceptive activity in Kunming mouse assessed as changes in tail flick latency by measuring maximal possible effect at 0.88 nmol/kg, sc measured after 120 mins by tail-flick test; type: functional; conditions: 2 h
[37] = Induction of antinociceptive tolerance in Kunming mouse assessed as decrease in tail flick latency at 0.88 nmol/kg, sc administered once daily for 8 days and measured once daily by tail-flick test; type: toxicity, organism-based; conditions: in vivo, 192 h, time 8 day
[38] = tested on: Mus musculus; experiment: Antinociceptive activity in Kunming mouse assessed as changes in tail flick latency by measuring maximal possible effect at 0.88 nmol/kg, sc measured after 240 mins by tail-flick test; type: functional; conditions: 4 h
[39] = AUC in Kunming mouse brain at 1 mg/kg, iv measured upto 240 mins by LC-MS/MS analysis; type: ADME, organism-based; design: time < 240 min, dose 1 mg/kg, route iv; conditions: in vivo, 4 h
[40] = Ratio of AUC in brain to plasma in Kunming mouse at 1 mg/kg, iv measured upto 240 mins by LC-MS/MS analysis; type: ADME, organism-based; conditions: read-out: BPR
[41] = tested on: Mus musculus; experiment: Antinociceptive activity in Kunming mouse assessed as changes in tail flick latency at 0.009 nmol/kg, sc pretreated with 1-adamantanecarbonyl-RF-NH2 at 10 nmol, icv for 5 mins followed by compound addition and measured for 360 mins by tail-flick test; type: functional, organism-based
[42] = tested on: Mus musculus; experiment: Antinociceptive activity in Kunming mouse assessed as changes in tail flick latency at 0.88 nmol/kg, sc pretreated with naltrindole at 10 nmol, icv for 10 mins followed by compound addition and measured for 360 mins by tail-flick test; type: functional, organism-based
[43] = tested on: Mus musculus; experiment: Antinociceptive activity in Kunming mouse assessed as changes in tail flick latency at 0.88 nmol/kg, sc pretreated with naloxone methiodide at 5 nmol, icv for 10 mins followed by compound addition and measured for 360 mins by tail-flick test; type: functional, organism-based
[44] = Toxicity in Kunming mouse assessed as effect on motor coordination at 88 nmol/kg, sc measured after 15 to 45 mins by rotarod test; type: organism-based; conditions: in vivo, time 15-45 min

T2 sequence (Q9Y5X5 whole entry): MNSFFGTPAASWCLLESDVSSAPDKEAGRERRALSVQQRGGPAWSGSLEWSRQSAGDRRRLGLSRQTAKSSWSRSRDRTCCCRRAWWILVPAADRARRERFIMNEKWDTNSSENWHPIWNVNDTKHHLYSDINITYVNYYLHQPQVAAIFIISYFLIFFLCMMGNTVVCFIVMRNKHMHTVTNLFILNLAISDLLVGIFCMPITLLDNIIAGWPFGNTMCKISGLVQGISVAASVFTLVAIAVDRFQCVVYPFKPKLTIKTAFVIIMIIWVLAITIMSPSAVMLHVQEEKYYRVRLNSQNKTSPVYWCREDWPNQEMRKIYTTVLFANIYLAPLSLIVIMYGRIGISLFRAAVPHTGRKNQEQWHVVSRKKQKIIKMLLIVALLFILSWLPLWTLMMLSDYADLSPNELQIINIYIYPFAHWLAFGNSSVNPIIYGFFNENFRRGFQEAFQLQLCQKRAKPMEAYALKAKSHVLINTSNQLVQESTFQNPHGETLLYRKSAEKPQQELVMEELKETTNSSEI
T1 sequence (P41143 whole entry): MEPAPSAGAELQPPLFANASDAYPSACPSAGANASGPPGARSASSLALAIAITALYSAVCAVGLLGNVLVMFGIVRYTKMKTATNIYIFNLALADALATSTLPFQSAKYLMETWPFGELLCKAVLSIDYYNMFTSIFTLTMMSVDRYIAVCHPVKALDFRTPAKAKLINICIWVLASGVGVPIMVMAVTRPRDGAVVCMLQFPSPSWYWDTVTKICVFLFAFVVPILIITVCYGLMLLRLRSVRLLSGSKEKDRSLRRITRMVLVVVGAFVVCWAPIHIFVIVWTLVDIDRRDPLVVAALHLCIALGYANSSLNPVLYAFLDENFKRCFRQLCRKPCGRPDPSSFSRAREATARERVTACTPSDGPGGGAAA
T4 sequence (P35372 whole entry): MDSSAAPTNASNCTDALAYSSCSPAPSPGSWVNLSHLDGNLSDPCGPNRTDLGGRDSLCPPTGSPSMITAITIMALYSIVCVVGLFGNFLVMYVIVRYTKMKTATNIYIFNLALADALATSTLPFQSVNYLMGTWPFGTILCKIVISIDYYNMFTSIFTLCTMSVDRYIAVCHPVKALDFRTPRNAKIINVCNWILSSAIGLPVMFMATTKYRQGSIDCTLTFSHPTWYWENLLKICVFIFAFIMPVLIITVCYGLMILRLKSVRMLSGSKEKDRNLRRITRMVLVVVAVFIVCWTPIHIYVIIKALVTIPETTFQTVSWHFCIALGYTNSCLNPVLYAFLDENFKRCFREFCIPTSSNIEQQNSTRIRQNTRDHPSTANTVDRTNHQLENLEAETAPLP
T3 sequence (P41145 whole entry): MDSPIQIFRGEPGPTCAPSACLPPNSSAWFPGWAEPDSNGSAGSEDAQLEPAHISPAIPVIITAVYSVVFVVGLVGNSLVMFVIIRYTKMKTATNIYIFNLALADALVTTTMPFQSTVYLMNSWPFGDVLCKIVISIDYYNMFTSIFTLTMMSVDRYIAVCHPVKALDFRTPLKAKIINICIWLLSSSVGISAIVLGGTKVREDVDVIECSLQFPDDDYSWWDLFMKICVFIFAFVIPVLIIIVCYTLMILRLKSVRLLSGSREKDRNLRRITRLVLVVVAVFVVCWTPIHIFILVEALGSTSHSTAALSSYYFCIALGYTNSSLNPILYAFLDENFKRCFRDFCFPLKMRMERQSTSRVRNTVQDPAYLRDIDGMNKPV

Row | SMILES | Emax [1] [%] | Emax [2] [%] | EC50 [3] [nM] | half-life at 10000 µM [4] [h] | EC50 [5] [nM] | half-life at 10000 µM [7] [h] | EC50 [9] [nM] | Emax [10] [%] | Emax [12] [%] | Emax [16] [%] | EC50 [17] [nM] | ED50 [19] [nmol/kg] | Activity [20] | ED50 [20] [pmol] | Activity [21] | ED50 [21] [µmol/kg] | Activity [22] | ED50 [22] [µmol/kg] | Time [23] [min] | MPE [24] [%] | further results
1 | CN1C(=O)CNC(=O)[C@H](N[C@@H](Cc2ccc(O)cc2)C(=O)O)CCC/C=C/C[C@@H](C(=O)N2CCC[C@H]2C(=O)N[C@@H](CCC(N)=O)C(=O)N[C@@H](CCCNC(=N)N)C(=O)N[C@@H](Cc2ccccc2)C(N)=O)NC(=O)[C@@H]1Cc1ccccc1 | 93 | 77.9 | 52.3 | 1.01 | 124 | 1.52 | 27.7 | 129 | 98.3 | 120 | 38.9 | – | – | – | – | – | – | – | – | – | MPE [6]: 65.5%; Activity [8]: inactive; MPE [11]: 81.9%; Time [13]: 360 min; MPE [14]: 96%; MPE [15]: 94.2%; MPE [18]: 44.7%
2 | CN1C(=O)CNC(=O)[C@H](N[C@@H](Cc2ccc(O)cc2)C(=O)O)CCCC/C=C\C[C@@H](C(=O)N2CCC[C@H]2C(=O)N[C@@H](CCC(N)=O)C(=O)N[C@@H](CCCNC(=N)N)C(=O)N[C@@H](Cc2ccccc2)C(N)=O)NC(=O)[C@@H]1Cc1ccccc1 | 81.9 | 89.2 | 144 | 0.447 | 169 | 1.78 | 56.2 | 93.7 | 99.2 | 98.1 | 2.8 | 84 | Dose-Dependent Effect | 1.38 | Dose-Dependent Effect | 1e-05 | Dose-Dependent Effect | 0.00135 | 360 | 89.8 | Activity [25]: Non-Toxic; Activity [26]: Non-Toxic; MPE [27]: 85.4%; Activity [28]: Non-Toxic; Activity [29]: inactive; Time [30]: <=360 min; Activity [31]: Non-Toxic; AUC at 4 h [32]: 2270 ng·h/mL; MPE [33]: 89.5%; Activity [34]: inactive; Time [35]: <=360 min; MPE [36]: 58.9%; Activity [37]: Non-Toxic; MPE [38]: 46.2%; AUC [39]: 183.2 µg·min/g; Kp at 4 h [40]: 1.35; Activity [41]: Active; Activity [42]: Active; Activity [43]: inactive; Activity [44]: Non-Toxic
3 | CN1C(=O)CNC(=O)[C@H](N[C@@H](Cc2ccc(O)cc2)C(=O)O)CCCC/C=C/C[C@@H](C(=O)N2CCC[C@H]2C(=O)N[C@@H](CCC(N)=O)C(=O)N[C@@H](CCCNC(=N)N)C(=O)N[C@@H](Cc2ccccc2)C(N)=O)NC(=O)[C@@H]1Cc1ccccc1 | 77.3 | 119 | 33.1 | 0.63 | 346 | 2.98 | 228 | 88.1 | 106 | 95 | 15.9 | 95.4 | Dose-Dependent Effect | 1.82 | Dose-Dependent Effect | 2e-05 | Dose-Dependent Effect | 0.00195 | 360 | 89.9 | Activity [25]: Non-Toxic; Activity [26]: Non-Toxic; MPE [27]: 80.5%; Activity [28]: Non-Toxic; Activity [29]: inactive; Time [30]: <=360 min; Activity [31]: Non-Toxic; MPE [33]: 77.2%; Activity [34]: inactive; Time [35]: <=360 min; MPE [36]: 72.8%; Activity [37]: Non-Toxic; MPE [38]: 43.5%; Activity [41]: Active; Activity [42]: Active; Activity [43]: inactive; Activity [44]: Non-Toxic
